Results taken from patent US5258371A, “Method to reduce connective tissue destruction” (Kuraray Co., Ltd., priority 1992, dated 1993).
pIC50: −log10 of the molar value. Blank lines part the entries; values can stand above or below the compound they belong to.

Key:
collagenase [1] = target: T1, collagenase (Oryctolagus cuniculus, UniProt P13943); assay: Collagenase inhibition test (in vitro), decomposition of FITC-labelled collagen; assay type: biochemical, Japanese white rabbit; conditions: for pIC50: collagenase from IL-1-stimulated rabbit chondrocyte culture supernatant, trypsin-activated, 35° C., 5% DMSO, read-out: Concentration of Drug Showing 50% Inhibition, IC50; for anti-collagenase activity (in words): refers to Test Example; for collagenase inhibition activity as a multiple of that of DMAT: relative to DMAT (control), from Table 1
T1 construct: endogenous in cells; host or cells: primary knee articular chondrocytes of Japanese white rabbit, stimulated with human recombinant interleukin-1 ('Interleukin-1a' in the source); culture supernatant
T1 sequence (P13943 99-468): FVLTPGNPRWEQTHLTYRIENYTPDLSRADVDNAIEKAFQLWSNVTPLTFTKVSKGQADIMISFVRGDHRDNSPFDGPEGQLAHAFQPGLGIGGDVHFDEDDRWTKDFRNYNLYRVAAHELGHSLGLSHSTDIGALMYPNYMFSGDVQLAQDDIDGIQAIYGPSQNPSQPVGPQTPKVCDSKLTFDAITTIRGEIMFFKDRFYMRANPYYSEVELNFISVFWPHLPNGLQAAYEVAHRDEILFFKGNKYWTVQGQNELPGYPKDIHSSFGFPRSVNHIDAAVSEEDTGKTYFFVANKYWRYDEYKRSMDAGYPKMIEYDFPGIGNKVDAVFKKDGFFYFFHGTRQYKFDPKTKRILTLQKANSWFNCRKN
Protocol: The tetracycline derivatives used in the present invention were tested for collagenase inhibition (in vitro), and for suppression of destruction of articular cartilage using rabbit osteoarthritis models (in vivo).
The knee articular cartilage of a Japanese white rabbit (4 weeks old) was aseptically taken out. The cartilage cells (chondrocytes) were separated according to the method of S. Collier et al [Ann. Rheum. […] In 30 ml of Ham's F12 culture medium (containing 10% fetal bovine serum) 4×10^6 cartilage cells were suspended and the medium was incubated at 37° C. in a 150 cm^2 incubation flask (made by Iwaki Glass Co., Japan) and under an air atmosphere containing 5% carbon dioxide. The medium was replaced every 3 to 4 days. When the cells propagated to the state of confluence (7 to 9 days after the start of incubation), the medium was replaced by Ham's F12 serum-free culture medium (30 units/ml of human recombinant Interleukin-1a made by Genzyme Co., USA) and 0.4% lactalbumin hydrolysate (made by Sigma Co., USA) and incubation was conducted for 4 days. The culture supernatant was taken and used as the collagenase solution to be tested.
The collagenase activity was expressed based on the decomposition of 1 μg of collagen at 35° C. in 1 minute being equal to 1 unit.
A solution of a drug to be tested was dissolved in dimethyl sulfoxide (DMSO), then was added to the collagenase assay solution. The final concentration of DMSO is 5%. The inhibition ratio of the drug was calculated based on the collagen decomposition activity without its addition being 100%.

[2] = system: articular cartilage in rabbit osteoarthritis models; assay: Test for suppression of destruction of articular cartilage using rabbit osteoarthritis models (partial lateral meniscectomy); assay type: in vivo, New Zealand white rabbit
Protocol: The tetracycline derivatives used in the present invention were tested for collagenase inhibition (in vitro), and for suppression of destruction of articular cartilage using rabbit osteoarthritis models (in vivo). The tetracycline derivatives tested were the mixture of DODMAT-2 and DODMAT-3 obtained in Synthesis Example 1 (hereinafter this mixture is referred to as "DODMAT mixture" and DOTC (mixture of isomers) obtained in Synthesis Example 2. DMAT was used as control.
The rabbit osteoarthritis models were made by the partial lateral meniscectomy procedure according to the method of C. Colombo et al [Arthritis Rheum., 26, 875 (1983)]. Adult male New Zealand white rabbits weighing approximately 3 kg each were used. The animals were anesthetized by intramuscular injection of 40 mg/kg Ketamine and 1.6 mg/kg Xylazine before surgery. The surgery was conducted as follows; the right knee was opened laterally, the fibular collateral ligament was exposed and 3-4 mm were removed. Subsequently, 3-4 mm of the sesamoid ligament were removed, followed by removal of 4-5 mm of the anterior lateral area of the exposed meniscus. The capsule and skin were then sutured. Following surgery, each animal daily received intramuscular injection of 2 mg/kg/day Dibekacin sulfate for a week to be protected from infection. The animals were sustained on standard rabbit pellets and tap water ad libitum during experiment.
The test drug (DODMAT mixture) or vehicle began 1 week post-surgery and continued every 7 days per week for 5 weeks. DODMAT, suspended in a vehicle aqueous solution containing 1% methyl cellulose, 0.8% sodium chloride, and 0.1% polysorbate 80, was administered orally by gavage. […] The histologic slides were coded and evaluated blind for 11 parameters, which are set forth in Table 2, using a scoring system of +1 to +4 for each type of abnormality as described by C. […] The data were analyzed by the one-sided Wilcoxon rank sum method.

rheumatoid arthritis = rheumatoid arthritis patients; J. Rheumatol., 17, 43 (1990); cited from earlier work
collagenase [3] = conditions: periodontal diseases; J. Periodontal Res., 18, 516 (1983); cited from earlier work
collagenase [4] = conditions: J. Dent. Res., 66, 1310 (1987) and others; cited from earlier work
bone resorption = conditions: J. Dent. Res., 66, 1310 (1987) and others; cited from earlier work
[5] = compared to tetracyclines; cited from earlier work

pIC50 (collagenase [1]): 5.60 | anti-collagenase activity (in words) (collagenase [1]): excellent anti-collagenase activity | collagenase inhibition activity as a multiple of that of DMAT (collagenase [1]): at least 10 times
Compound: 4-dedimethylamino-12a-deoxytetracycline [DODMAT mixture]
Mean score of cartilage lesions ± S.E. ([2]; 15 mg/kg/day orally by gavage, 5 weeks from 1 week post-surgery, 9 animals, p < 0.05 (one-sided Wilcoxon rank sum), vehicle 46.6 ± 7.3 (7 animals)): 24.7 ± 3.3 | improvement resulting from treatment ([2]; cartilage lesion score versus vehicle, 15 mg/kg/day oral): at least 47% | suppression of destruction of articular cartilages (in words) ([2]; rabbit osteoarthritis models): significant suppression of destruction of articular cartilages

Compound: CN(C)c1ccc(O)c2c1C[C@H]1C[C@H]3[C@H](N(C)C)C(O)=C(C(N)=O)C(=O)[C@@]3(O)C(O)=C1C2=O [minocycline]
time after start of administration at which appreciable effects were observed (rheumatoid arthritis): 4 months | anti-collagenolytic activity (in words) (collagenase [3]): anti-collagenolytic activity

Compound: C[C@@]1(O)c2cccc(O)c2C(=O)C2=C(O)[C@]3(O)C(=O)C(C(N)=O)=C(O)CC3CC21 (stereo partly drawn) [DMAT, 4-dedimethylaminotetracycline]
pIC50 (collagenase [1]): 3.52 | collagenase inhibition compared to tetracyclines (in words) (collagenase [4]): compares favorably to tetracyclines with respect to collagenase inhibition | suppression of bone resorption compared to tetracyclines (in words) (bone resorption): compares favorably to tetracyclines with respect to collagenase inhibition, suppression of bone resorption | antibacterial activity (in words) [5]: without the same antibacterial activity

Compound: 12a-deoxytetracycline [DOTC]
pIC50 (collagenase [1]): 4.66 | anti-collagenase activity (in words) (collagenase [1]): excellent anti-collagenase activity | collagenase inhibition activity as a multiple of that of DMAT (collagenase [1]): at least 10 times
